A short description of data set [1]: Aqueous solubility, equilibrated 24 hour suspension of the salt in water, HPLC. The format is physicochemical. The note with it: for pH: pH measured at saturation in water; for Solubility: water, 24 hour at ambient. The protocol:
The aliquot was diluted and analyzed by HPLC. The data was compared to a standard curve generated from a set of solutions of known concentrations. The standard curve and the samples were analyzed using a HPLC using the following conditions: • Column: Symmetry C-18, 5 um, 15 cm×3.9 mm (Waters) • Mobile Phase: 0.05 M KH2PO4-0.01 M Hexanesulfonic Acid/THF (1000:125) (Apparent pH 5.0) • Column Temp: 20-30° C. • Flow Rate: 1.0 mL/min • Wavelength: 305 nm • Run Time: 15 min (zopiclone retention time is 9.5-10 min)

A short description of data set [2]: Intrinsic dissolution, USP 28 method <1087>. The data set is classed as physicochemical. The note with it: isotonic 50 mM acetate buffer pH 4.5, 37° C., 50 rpm; for Intrinsic dissolution Average: average of two runs. As for the experimental part: Intrinsic dissolution was determined using USP 28 method <1087> (United States Pharmacopeia, The National Formulary, USP 28, 28th edition, Rockville, […]., 2005). Preparation of each test sample was performed as per USP 28 method <1087> by weighing and transferring the material to the die cavity and compressing for 1 minute at the minimum compression pressure necessary to form a nondisintegrating compacted pellet. The dissolution media used was isotonic 50 mM acetate buffer (pH 4.5) at 37° C. and speed was set at 50 rpm. Each run was halted at 5 min, irrespective of the percent dissolved. Each salt was run in duplicate.

Counter-ions that a name gives are not always drawn.

On to `CN1CCN(C(=O)OC2c3nccnc3C(=O)N2c2ccc(Cl)cn2)CC1` (stereo in doubt) [(R)-Mandelate, (S)-Zopiclone (R)-Mandelate], for which, in data set [1], the pH is on record as 5.1 and the Solubility turned out to be 25 mgA/mL. Further, in data set [2], the “Intrinsic dissolution Run 1” value was 8.2 mgA/cm^2/min, the “Intrinsic dissolution Run 2” value was found to be 8.9 mgA/cm^2/min and the “Intrinsic dissolution Average” value came to 8.5 mgA/cm^2/min.

Consider `CN1CCN(C(=O)O[C@H]2c3nccnc3C(=O)N2c2ccc(Cl)cn2)CC1` [D-Malate, (S)-Zopiclone D-Malate], for which, in data set [1], the pH is recorded as 4.0 and the Solubility turned out to be 36 mgA/mL. In addition, in data set [2], the “Intrinsic dissolution Run 1” value was determined as 20.0 mgA/cm^2/min, the “Intrinsic dissolution Run 2” value stood at 19.8 mgA/cm^2/min and the “Intrinsic dissolution Average” value is given as 19.9 mgA/cm^2/min.

As for `CN1CCN(C(=O)O[C@H]2c3nccnc3C(=O)N2c2ccc(Cl)cn2)CC1` [Free base, (S)-(6-(5-chloro-2-pyridyl)-5-[(4-methyl-1-piperazinyl)carbonyloxy]-7-oxo-6,7-dihydro-5H-pyrrolo[3,4-b]pyrazine), reference compound], in data set [1], the pH is listed as 7.6 and the Solubility is recorded as 0.2^1 mgA/mL. Also, in data set [2], the “Intrinsic dissolution Run 1” value worked out at 0.6 mgA/cm^2/min, the “Intrinsic dissolution Run 2” value was determined as 0.5 mgA/cm^2/min and the “Intrinsic dissolution Average” value worked out at 0.5 mgA/cm^2/min.

With `CN1CCN(C(=O)O[C@H]2c3nccnc3C(=O)N2c2ccc(Cl)cn2)CC1` [Mesylate, (S)-Zopiclone Mesylate], in data set [1], the pH amounted to 4.9 and the Solubility is given as >86 mgA/mL.

For the molecule `CN1CCN(C(=O)O[C@H]2c3nccnc3C(=O)N2c2ccc(Cl)cn2)CC1` [Succinate, (S)-Zopiclone Succinate], the Solubility in data set [1] is on record as 100 mgA/mL.

The record behind these values is patent US20110053945A1, “SALTS OF 6-(5-CHLORO-2-PYRIDYL)-5-[(4-METHYL-1-PIPERAZINYL)CARBONYLOXY]-7-OXO-6,7-DIHY-DRO-5H-PYRROLO[3,4-B]PYRAZINE” (SEPRACOR INC., priority 2007, published 2011).
